Source: patent publication US10681909B2, “Herbicidal triazoles” (FMC Corporation, priority 2014, dated 2020)

How the values were obtained:
soybean = test: Test C postemergence; assay type: in vivo, Glycine max
Method in brief: (§1)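 Plants are treated postemergence at the 1- to 4-leaf stage (2 to 18 cm), grown in sphagnum peat/vermiculite medium; preemergence treatment is applied to seed planted in loam soil with sand. Both use test chemical in a non-phytotoxic solvent mixture with surfactant.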

rice = test: Test B flooded paddy test; assay type: in vivo, Oryza sativa; details: 250 g ai/ha, applied to paddy water at 2-leaf stage, visual rating after 13 to 15 d, scale 0 (no effect) to 100 (complete control)
Method in brief: (§2)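 Pots were flooded to 3 cm above the soil at treatment, and compounds were applied directly into the paddy water. That depth was held throughout. After 13 to 15 d in a greenhouse, plants were rated visually against untreated controls.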

foxtail, giant = test: Test A preemergence; assay type: in vivo, Setaria faberii; details: 0 to 100 scale (0 no effect, 100 complete control)
Method in brief: (§3)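 Plant seeds in loam soil blended with sand, then apply test chemical preemergence as a directed soil spray; in parallel, spray potted seedlings (one- to two-leaf, 2 to 10 cm) postemergence. Both treatments use a non-phytotoxic solvent mixture with surfactant.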

oat, wild = test: Test C postemergence; assay type: in vivo, Avena fatua
Method in brief: as §1

corn = test: Test A postemergence; assay type: in vivo, Zea mays; details: 0 to 100 scale (0 no effect, 100 complete control), approx. 10 d
Method in brief: as §3

wheat (winter wheat) = test: Test C postemergence; assay type: in vivo, Triticum aestivum
Method in brief: as §1

morningglory = test: Test C postemergence; assay type: in vivo, Ipomoea coccinea
Method in brief: as §1

chickweed = test: Test C postemergence; assay type: in vivo, Stellaria media
Method in brief: as §1

barnyardgrass = test: Test A postemergence; assay type: in vivo, Echinochloa crus-galli; details: 0 to 100 scale (0 no effect, 100 complete control), approx. 10 d
Method in brief: as §3

sedge, umbrella = test: Test B flooded paddy test; assay type: in vivo, Cyperus difformis; details: 250 g ai/ha, applied to paddy water at 2-leaf stage, visual rating after 13 to 15 d, scale 0 (no effect) to 100 (complete control)
Method in brief: as §2

ducksalad = test: Test B flooded paddy test; assay type: in vivo, Heteranthera limosa; details: 250 g ai/ha, applied to paddy water at 2-leaf stage, visual rating after 13 to 15 d, scale 0 (no effect) to 100 (complete control)
Method in brief: as §2

pigweed = test: Test A preemergence; assay type: in vivo, Amaranthus retroflexus; details: 0 to 100 scale (0 no effect, 100 complete control)
Method in brief: as §3

nutsedge, yellow = test: Test C postemergence; assay type: in vivo, Cyperus esculentus
Method in brief: as §1

ryegrass, Italian = test: Test C postemergence; assay type: in vivo, Lolium multiflorum
Method in brief: as §1

Structure (SMILES): COc1nc(-c2ccccc2)nn1Cc1ccnc(C(F)(F)F)c1 [Compound 32]
- Plant response rating (scale of 0 to 100 where 0 is no effect and 100 is complete control) (soybean; 31 g ai/ha): 20
- Plant response rating (scale of 0 to 100 where 0 is no effect and 100 is complete control) (soybean; 62 g ai/ha): 25
- Plant response rating (scale of 0 to 100 where 0 is no effect and 100 is complete control) (soybean; 125 g ai/ha): 30
- Plant response rating (scale of 0 to 100 where 0 is no effect and 100 is complete control) (soybean; 250 g ai/ha): 35
- Plant response rating, Rice, Flood (rice): 0
- Plant response rating, Foxtail, Giant (foxtail, giant; 125 g ai/ha): 90
- Plant response rating, Foxtail, Giant (foxtail, giant; 500 g ai/ha, approx. 10 d): 100
- Plant response rating (scale of 0 to 100 where 0 is no effect and 100 is complete control) (oat, wild; 31 g ai/ha): 0
- Plant response rating (scale of 0 to 100 where 0 is no effect and 100 is complete control) (oat, wild; 62 g ai/ha): 5
- Plant response rating (scale of 0 to 100 where 0 is no effect and 100 is complete control) (oat, wild; 125 g ai/ha): 5
- Plant response rating (scale of 0 to 100 where 0 is no effect and 100 is complete control) (oat, wild; 250 g ai/ha): 10
- Plant response rating, Corn (corn; 125 g ai/ha): 10
- Plant response rating, Corn (corn; 500 g ai/ha): 30
- Plant response rating (scale of 0 to 100 where 0 is no effect and 100 is complete control) (wheat (winter wheat); 31 g ai/ha): 0
- Plant response rating (scale of 0 to 100 where 0 is no effect and 100 is complete control) (wheat (winter wheat); 62 g ai/ha): 0
- Plant response rating (scale of 0 to 100 where 0 is no effect and 100 is complete control) (wheat (winter wheat); 125 g ai/ha): 0
- Plant response rating (scale of 0 to 100 where 0 is no effect and 100 is complete control) (wheat (winter wheat); 250 g ai/ha): 0
- Plant response rating (scale of 0 to 100 where 0 is no effect and 100 is complete control) (morningglory; 31 g ai/ha): 80
- Plant response rating (scale of 0 to 100 where 0 is no effect and 100 is complete control) (morningglory; 62 g ai/ha): 40
- Plant response rating (scale of 0 to 100 where 0 is no effect and 100 is complete control) (morningglory; 125 g ai/ha): 80
- Plant response rating (scale of 0 to 100 where 0 is no effect and 100 is complete control) (morningglory; 250 g ai/ha): 65
- Plant response rating (scale of 0 to 100 where 0 is no effect and 100 is complete control) (chickweed; 31 g ai/ha): 10
- Plant response rating (scale of 0 to 100 where 0 is no effect and 100 is complete control) (chickweed; 62 g ai/ha): 10
- Plant response rating (scale of 0 to 100 where 0 is no effect and 100 is complete control) (chickweed; 125 g ai/ha): 55
- Plant response rating (scale of 0 to 100 where 0 is no effect and 100 is complete control) (chickweed; 250 g ai/ha): 50
- Plant response rating, Barnyardgrass (barnyardgrass; 125 g ai/ha): 30
- Plant response rating, Barnyardgrass (barnyardgrass; 500 g ai/ha): 60
- Plant response rating, Sedge, Umbrella, Flood (sedge, umbrella): 75
- Plant response rating, Ducksalad, Flood (ducksalad): 30
- Plant response rating, Pigweed (pigweed; 125 g ai/ha): 100
- Plant response rating, Pigweed (pigweed; 500 g ai/ha, approx. 10 d): 100
- Plant response rating (scale of 0 to 100 where 0 is no effect and 100 is complete control) (nutsedge, yellow; 31 g ai/ha): 10
- Plant response rating (scale of 0 to 100 where 0 is no effect and 100 is complete control) (nutsedge, yellow; 62 g ai/ha): 20
- Plant response rating (scale of 0 to 100 where 0 is no effect and 100 is complete control) (nutsedge, yellow; 125 g ai/ha): 10
- Plant response rating (scale of 0 to 100 where 0 is no effect and 100 is complete control) (nutsedge, yellow; 250 g ai/ha): 25
- Plant response rating (scale of 0 to 100 where 0 is no effect and 100 is complete control) (ryegrass, Italian; 31 g ai/ha): 0
- Plant response rating (scale of 0 to 100 where 0 is no effect and 100 is complete control) (ryegrass, Italian; 62 g ai/ha): 0
- Plant response rating (scale of 0 to 100 where 0 is no effect and 100 is complete control) (ryegrass, Italian; 125 g ai/ha): 0
- Plant response rating (scale of 0 to 100 where 0 is no effect and 100 is complete control) (ryegrass, Italian; 250 g ai/ha): 10

Structure (SMILES): CCCOc1nc(-c2ccccc2)nn1Cc1ccnc(C(F)(F)F)c1 [Compound 33]
- Plant response rating (scale of 0 to 100 where 0 is no effect and 100 is complete control) (soybean; 31 g ai/ha): 25
- Plant response rating (scale of 0 to 100 where 0 is no effect and 100 is complete control) (soybean; 62 g ai/ha): 35
- Plant response rating (scale of 0 to 100 where 0 is no effect and 100 is complete control) (soybean; 125 g ai/ha): 55
- Plant response rating (scale of 0 to 100 where 0 is no effect and 100 is complete control) (soybean; 250 g ai/ha): 65
- Plant response rating, Rice, Flood (rice): 0
- Plant response rating, Foxtail, Giant (foxtail, giant; 125 g ai/ha): 90
- Plant response rating, Foxtail, Giant (foxtail, giant; 500 g ai/ha, approx. 10 d): 100
- Plant response rating (scale of 0 to 100 where 0 is no effect and 100 is complete control) (oat, wild; 31 g ai/ha): 10
- Plant response rating (scale of 0 to 100 where 0 is no effect and 100 is complete control) (oat, wild; 62 g ai/ha): 10
- Plant response rating (scale of 0 to 100 where 0 is no effect and 100 is complete control) (oat, wild; 125 g ai/ha): 20
- Plant response rating (scale of 0 to 100 where 0 is no effect and 100 is complete control) (oat, wild; 250 g ai/ha): 25
- Plant response rating, Corn (corn; 125 g ai/ha): 20
- Plant response rating, Corn (corn; 500 g ai/ha): 30
- Plant response rating (scale of 0 to 100 where 0 is no effect and 100 is complete control) (wheat (winter wheat); 31 g ai/ha): 5
- Plant response rating (scale of 0 to 100 where 0 is no effect and 100 is complete control) (wheat (winter wheat); 62 g ai/ha): 5
- Plant response rating (scale of 0 to 100 where 0 is no effect and 100 is complete control) (wheat (winter wheat); 125 g ai/ha): 5
- Plant response rating (scale of 0 to 100 where 0 is no effect and 100 is complete control) (wheat (winter wheat); 250 g ai/ha): 5
- Plant response rating (scale of 0 to 100 where 0 is no effect and 100 is complete control) (morningglory; 31 g ai/ha): 55
- Plant response rating (scale of 0 to 100 where 0 is no effect and 100 is complete control) (morningglory; 62 g ai/ha): 80
- Plant response rating (scale of 0 to 100 where 0 is no effect and 100 is complete control) (morningglory; 125 g ai/ha): 85
- Plant response rating (scale of 0 to 100 where 0 is no effect and 100 is complete control) (morningglory; 250 g ai/ha): 75
- Plant response rating (scale of 0 to 100 where 0 is no effect and 100 is complete control) (chickweed; 31 g ai/ha): 55
- Plant response rating (scale of 0 to 100 where 0 is no effect and 100 is complete control) (chickweed; 62 g ai/ha): 60
- Plant response rating (scale of 0 to 100 where 0 is no effect and 100 is complete control) (chickweed; 125 g ai/ha): 60
- Plant response rating (scale of 0 to 100 where 0 is no effect and 100 is complete control) (chickweed; 250 g ai/ha): 80
- Plant response rating, Barnyardgrass (barnyardgrass; 125 g ai/ha): 20
- Plant response rating, Barnyardgrass (barnyardgrass; 500 g ai/ha): 50
- Plant response rating, Sedge, Umbrella, Flood (sedge, umbrella): 85
- Plant response rating, Ducksalad, Flood (ducksalad): 30
- Plant response rating, Pigweed (pigweed; 125 g ai/ha): 90
- Plant response rating, Pigweed (pigweed; 500 g ai/ha, approx. 10 d): 90
- Plant response rating (scale of 0 to 100 where 0 is no effect and 100 is complete control) (nutsedge, yellow; 31 g ai/ha): 5
- Plant response rating (scale of 0 to 100 where 0 is no effect and 100 is complete control) (nutsedge, yellow; 62 g ai/ha): 10
- Plant response rating (scale of 0 to 100 where 0 is no effect and 100 is complete control) (nutsedge, yellow; 125 g ai/ha): 10
- Plant response rating (scale of 0 to 100 where 0 is no effect and 100 is complete control) (nutsedge, yellow; 250 g ai/ha): 15
- Plant response rating (scale of 0 to 100 where 0 is no effect and 100 is complete control) (ryegrass, Italian; 31 g ai/ha): 0
- Plant response rating (scale of 0 to 100 where 0 is no effect and 100 is complete control) (ryegrass, Italian; 62 g ai/ha): 5
- Plant response rating (scale of 0 to 100 where 0 is no effect and 100 is complete control) (ryegrass, Italian; 125 g ai/ha): 5
- Plant response rating (scale of 0 to 100 where 0 is no effect and 100 is complete control) (ryegrass, Italian; 250 g ai/ha): 15
